Our source for the IC50 and activation values is patent publication US8501750B2, “Heterocyclic compound and use thereof” (Takeda Pharmaceutical Company Limited, priority 2007, dated 2013).

The target in one assay is AT1 receptor (Homo sapiens (Human), UniProt P30556). Nature of the assay: AT1 receptor binding inhibitory action.
Another assay deals with PPARγ (Homo sapiens (Human), UniProt P37231). In words: PPARγ activating action (luciferase reporter in PPARγ:RXRα:4ERPP/CHO-K1 cells). The format is cell-based. The note with it: CHO-K1, 24 h, read-out: PPARγ activating action (activation % (1 μM)). As to the method:
Then the medium was removed from the 96-well half area white plate, 45 μl of Ham's F12 medium containing 0.1% fatty acid-free bovine serum albumin (BSA) and 5 μl of test compound were added, and the cells were cultured in a CO2 gas incubator at 37° C. for 1 day. The medium was removed and 20 μl of PicaGene 7.5 [manufactured by Dainippon Ink and Chemicals Corporation, Japan] diluted 2-fold with HBSS (HANKS' BALANCED SALT SOLUTION) [manufactured by BIO WHITTAKER, USA] was added. After stirring, the luciferase activity was determined using 1420 ARVO Multilabel Counter [manufactured by PerkinElmer, USA]. […] A CHO-K1 cell cultured in a 150 cm^2 cell culture flask [manufactured by Corning Costar Corporation, USA] containing Ham's F12 medium [manufactured by INVITROGEN, USA] supplemented with 10% fetal bovine serum [manufactured by INVITROGEN, USA] was scraped by treating with 0.5 g/L trypsin-0.2 g/L EDTA (ethylenediaminetetraacetic acid) [manufactured by Life Technologies, Inc., USA], and then the cell was washed with PBS (Phosphate-buffered saline) [manufactured by INVITROGEN, USA], centrifuged (1000 rpm, 5 minutes) and suspended in PBS. Subsequently, DNA was introduced into the cell under the conditions shown below using GENE PULSER [manufactured by Bio-Rad Laboratories, USA]. […] Subsequently, the cell was transferred into a F12 medium containing 10% fetal bovine serum and cultured for 24 hours, and then the cell was scraped again and centrifuged, and then suspended in Ham's F12 medium containing 10% fetal bovine serum supplemented with 500 μg/ml of Geneticin [manufactured by INVITROGEN, USA] and 250 μg/ml of Zeocin [manufactured by INVITROGEN, USA]. The obtained suspension was diluted to the density of 10^4 cells/ml and inoculated in a 96-well plate [manufactured by Corning Costar Corporation, USA], which was cultured in a CO2 gas incubator at 37° C., whereby obtaining a Geneticin- and Zeocin-resistant transformant.
On the technique in general: In a reporter assay the amount or activity of a reporter protein is the signal.

Where [1] appears, read: test compound 1 μM, luciferase activity relative to control compound X (1 μM) = 100%, non-administration group = 0%.

Structures can show the parent of a compound that is named as a salt. Where two headings read alike, the source gives them in different places.

Sequence of PPARγ (P37231 29-505): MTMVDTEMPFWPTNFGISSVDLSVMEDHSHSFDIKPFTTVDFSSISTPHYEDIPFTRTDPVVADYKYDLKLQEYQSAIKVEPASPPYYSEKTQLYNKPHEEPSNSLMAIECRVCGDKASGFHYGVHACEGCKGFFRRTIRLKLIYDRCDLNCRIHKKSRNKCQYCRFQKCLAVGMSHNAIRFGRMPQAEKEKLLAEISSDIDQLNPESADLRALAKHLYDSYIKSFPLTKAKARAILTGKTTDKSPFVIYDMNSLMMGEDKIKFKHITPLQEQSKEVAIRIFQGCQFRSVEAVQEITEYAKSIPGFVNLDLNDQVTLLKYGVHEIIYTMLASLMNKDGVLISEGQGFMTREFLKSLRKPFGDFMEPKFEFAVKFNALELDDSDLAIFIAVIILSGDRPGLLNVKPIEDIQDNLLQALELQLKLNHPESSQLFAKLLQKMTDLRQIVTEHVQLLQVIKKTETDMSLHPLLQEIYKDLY
Sequence of PPARγ (P19793 whole entry partner): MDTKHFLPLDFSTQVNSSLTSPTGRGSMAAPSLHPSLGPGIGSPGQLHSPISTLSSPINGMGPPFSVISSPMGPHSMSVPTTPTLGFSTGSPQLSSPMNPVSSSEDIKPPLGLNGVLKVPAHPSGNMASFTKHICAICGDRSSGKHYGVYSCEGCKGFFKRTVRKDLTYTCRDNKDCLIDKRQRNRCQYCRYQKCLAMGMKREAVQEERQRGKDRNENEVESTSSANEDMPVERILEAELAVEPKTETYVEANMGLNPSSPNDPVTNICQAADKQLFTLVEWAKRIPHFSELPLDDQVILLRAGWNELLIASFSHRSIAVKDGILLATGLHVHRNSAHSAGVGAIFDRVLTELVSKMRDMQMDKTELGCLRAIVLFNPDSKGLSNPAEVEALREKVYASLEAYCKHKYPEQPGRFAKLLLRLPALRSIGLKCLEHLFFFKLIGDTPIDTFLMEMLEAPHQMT
Sequence of AT1 receptor (P30556 whole entry): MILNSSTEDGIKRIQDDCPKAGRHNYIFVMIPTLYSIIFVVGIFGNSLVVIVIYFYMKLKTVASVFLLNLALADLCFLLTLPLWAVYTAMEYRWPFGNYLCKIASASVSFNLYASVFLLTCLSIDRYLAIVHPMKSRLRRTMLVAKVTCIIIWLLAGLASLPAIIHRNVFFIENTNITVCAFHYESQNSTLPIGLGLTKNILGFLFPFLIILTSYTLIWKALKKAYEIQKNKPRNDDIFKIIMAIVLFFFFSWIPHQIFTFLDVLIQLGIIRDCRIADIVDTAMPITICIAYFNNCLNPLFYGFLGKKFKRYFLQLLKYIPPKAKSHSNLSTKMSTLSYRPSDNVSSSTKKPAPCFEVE

What is called IC50 is the concentration at which inhibition is half-maximal. A lower IC50 goes with higher potency. On to `CCc1cc2c(=O)n(CC(O)C(C)(C)C)c(=O)n(Cc3ccc(-c4ccccc4-c4noc(=O)[nH]4)cc3)c2s1` (stereo not shown) [Ex. 149, 6-ethyl-3-(2-hydroxy-3,3-dimethylbutyl)-1-{[2′-(5-oxo-4,5-dihydro-1,2,4-oxadiazol-3-yl)biphenyl-4-yl]methyl}thieno[2,3-d]pyrimidine-2,4(1H,3H)-dione], for which, on AT1 receptor, the concentration for half-maximal inhibition (IC50) came to 1.8 nM. Further, the activation at 1 µM on PPARγ (setting [1]) was 50%.

As for `CCc1cc2c(=O)n(CC(=O)c3ccc(OC)cc3)c(=O)n(Cc3ccc(-c4ccccc4-c4noc(O)n4)cc3C)c2s1` [Ex. 116, 6-ethyl-3-[2-(4-methoxyphenyl)-2-oxoethyl]-1-{[3-methyl-2′-(5-oxo-4,5-dihydro-1,2,4-oxadiazol-3-yl)biphenyl-4-yl]methyl}thieno[2,3-d]pyrimidine-2,4(1H,3H)-dione potassium salt], the IC50 on AT1 receptor came to 1.8 nM. In addition, the activation at 1 µM on PPARγ stood at 38%.

Take `COc1cc(F)ccc1C(=O)Cn1c(=O)c2cc(C3CC3)sc2n(Cc2ccc(-c3ccccc3-c3noc(=O)[nH]3)cc2F)c1=O` [Ex. 129, 6-cyclopropyl-3-[2-(4-fluoro-2-methoxyphenyl)-2-oxoethyl]-1-{[3-fluoro-2′-(5-oxo-4,5-dihydro-1,2,4-oxadiazol-3-yl)biphenyl-4-yl]methyl}thieno[2,3-d]pyrimidine-2,4(1H,3H)-dione]: the IC50 on AT1 receptor was 1.6 nM. Besides, the activation at 1 µM at PPARγ (setting [1]) was determined as 61%.

Turning to `CCCc1cc2c(=O)n(CC(=O)c3ccc(OC)cc3)c(=O)n(Cc3ccc(-c4ccccc4-c4noc(=O)[nH]4)cc3F)c2s1` [Ex. 158, 1-{[3-fluoro-2′-(5-oxo-4,5-dihydro-1,2,4-oxadiazol-3-yl)biphenyl-4-yl]methyl}-3-[2-(4-methoxyphenyl)-2-oxoethyl]-6-propylthieno[2,3-d]pyrimidine-2,4(1H,3H)-dione], the IC50 on AT1 receptor was 1.7 nM. Further, the activation at 1 µM at PPARγ (setting [1]) came to 30%.

`CCc1cc2c(=O)n(CCN3CCOCC3)c(=O)n(Cc3ccc(-c4ccccc4-c4noc(=O)[nH]4)cc3F)c2s1` [Ex. 117, 6-ethyl-1-{[3-fluoro-2′-(5-oxo-4,5-dihydro-1,2,4-oxadiazol-3-yl)biphenyl-4-yl]methyl}-3-(2-morpholin-4-ylethyl)thieno[2,3-d]pyrimidine-2,4(1H,3H)-dione]: the IC50 at AT1 receptor worked out at 1.8 nM. Besides, the activation at 1 µM at PPARγ (setting [1]) was determined as 62%.

The molecule `CCc1cc2c(=O)n(CC(=O)c3ccc(Cl)s3)c(=O)n(Cc3ccc(-c4ccccc4-c4noc(=O)[nH]4)cc3)c2s1` [Ex. 150, 3-[2-(5-chloro-2-thienyl)-2-oxoethyl]-6-ethyl-1-{[2′-(5-oxo-4,5-dihydro-1,2,4-oxadiazol-3-yl)biphenyl-4-yl]methyl}thieno[2,3-d]pyrimidine-2,4(1H,3H)-dione] gave an IC50 on AT1 receptor of 1.5 nM. The activation at 1 µM on PPARγ (setting [1]) stood at 33%.

Turning to `CCc1cc2c(=O)n(CC(=NOC)c3ccccc3)c(=O)n(Cc3ccc(-c4ccccc4-c4noc(=O)[nH]4)cc3)c2s1` [Ex. 215, 6-ethyl-3-[2-(methoxyimino)-2-phenylethyl]-1-{[2′-(5-oxo-4,5-dihydro-1,2,4-oxadiazol-3-yl)biphenyl-4-yl]methyl}thieno[2,3-d]pyrimidine-2,4(1H,3H)-dione], at AT1 receptor, the IC50 came out at 1.3 nM. Besides, the activation at 1 µM on PPARγ (setting [1]) was found to be 27%.

On to `CCc1cc2c(=O)n(CC(O)c3ccc(OC)cc3)c(=O)n(Cc3ccc(-c4ccccc4-c4noc(=O)[nH]4)cc3F)c2s1` (stereo not shown) [Ex. 152, 6-ethyl-1-{[3-fluoro-2′-(5-oxo-4,5-dihydro-1,2,4-oxadiazol-3-yl)biphenyl-4-yl]methyl}-3-[2-hydroxy-2-(4-methoxyphenyl)ethyl]thieno[2,3-d]pyrimidine-2,4(1H,3H)-dione], for which, at AT1 receptor, the IC50 came to 1.5 nM. Also, at PPARγ (setting [1]), the activation at 1 µM was found to be 40%.
